{
  "source": "patent US20050020643A1",
  "about": "“Pyridinyl amides and compositions thereof for use as fungicides” (priority 2002, published 2005)",
  "assay_type_in_all_cases": "in vivo",
  "key": {"[1]": {"test_system": "Erysiphe graminis f. sp. tritici", "experiment": "Test A: preventive control of wheat powdery mildew on wheat seedlings", "parameters": "concentration or dose not given beside the values", "conditions": "sprayed day before inoculation, rated after 7 days, rate not given"}, "Puccinia recondita": {"test_system": "Puccinia recondita", "experiment": "Test B: preventive control of wheat leaf rust on wheat seedlings", "parameters": "concentration or dose not given beside the values", "conditions": "sprayed day before inoculation, rate not given"}, "Pyricularia oryzae": {"test_system": "Pyricularia oryzae", "conditions": "rice seedlings, sprayed day before inoculation; rate not given"}, "Phytophthora infestans [2]": {"test_system": "Phytophthora infestans", "conditions": "tomato (or potato) seedlings, sprayed day before inoculation; rate not given"}, "Plasmopara viticola [3]": {"test_system": "Plasmopara viticola", "experiment": "Test E: preventive control of grape downy mildew on grape seedlings", "conditions": "sprayed day before inoculation, rate not given"}, "Phytophthora infestans [4]": {"test_system": "Phytophthora infestans", "experiment": "whole plant or invertebrate", "conditions": "Phytophthora infestans, in Solanum tuberosum, 120 h, read-out: Test F disease control rating"}, "Plasmopara viticola [5]": {"test_system": "Plasmopara viticola", "experiment": "Test G: curative control of grape downy mildew on grape seedlings (sprayed after inoculation)", "conditions": "sprayed day after inoculation, rate not given"}},
  "data": [
    {"molecule": "CC(NC(=O)c1c(Cl)ccnc1Cl)c1ncc(Cl)cc1Cl", "note": "(racemic) [Compound 1, 2,4-Dichloro-N-[1-(3,5-dichloro-2-pyridinyl)ethyl]-3-pyridinecarboxamide]", "values": [
      {"measurement": "Test A disease control rating", "setting": "[1]", "value": 0, "unit": "%"},
      {"measurement": "Test B disease control rating", "setting": "Puccinia recondita", "value": 38, "unit": "%"},
      {"measurement": "Test C disease control rating", "setting": "Pyricularia oryzae", "value": 0, "unit": "%"},
      {"measurement": "Test D disease control rating", "setting": "Phytophthora infestans [2]", "value": 100, "unit": "%"},
      {"measurement": "Test E disease control rating", "setting": "Plasmopara viticola [3]", "value": 99, "unit": "%"},
      {"measurement": "pest or weed control at 100 g/ha", "setting": "Phytophthora infestans [4]", "value": 87, "unit": "%"},
      {"measurement": "Test G disease control rating", "setting": "Plasmopara viticola [5]", "value": 100, "unit": "%"}
    ]}
  ]
}
